The values that follow come from patent publication US20210205292A1, “INHIBITORS OF CREB-CBP INTERACTION FOR TREATMENT OF LEUKEMIA” (The Board of Trustees of the Leland Stanford Junior …, priority 2016, published 2021).

Holding throughout (assay type): cell-based
Assay [1] deals with HL60 (Human promyelocytic leukemia cell line). Put plainly: CellTiter Glo assay in HL60 cells. On the procedure:
(§1) The compounds prepared according to the methods described herein and tested for activity in the CellTiter Glo assay in HL60 (Human promyelocytic leukemia cell line), Jukat (human T lymphocyte cell line for acute T cell leukemia) and/or Nalm6 (human ALL cell line) cells.
(§2) Compounds were prepared according to the methods described herein and tested for activity in the CellTiter Glo assay in HL60 (Human promyelocytic leukemia cell line), Jukat (human T lymphocyte cell line for acute Tcell leukemia) and/or Nalm6 (human ALL cell line) cells.
(In ATP-based viability assays light output follows the ATP content of the culture.)

In assay [2] the test system is Jukat (human T lymphocyte cell line for acute T cell leukemia). Put plainly: CellTiter Glo assay in Jukat cells. On the procedure: as §1, §2
Assay [3] concerns Nalm6 (human ALL cell line). As to the kind of experiment: CellTiter Glo assay in Nalm6 cells. On the procedure:
as §1, §2

Turning to `COc1ccc(NC(=O)c2cc(F)ccc2O)cc1` [Compound 54], the 50% inhibitory concentration (IC50) in assay [1] (HL-60, second Table 4) was 1 to 10 µM; in assay [2] (second Table 4), over 10 µM; in assay [3] (NALM-6, second Table 4) it was over 10 µM.

Turning to `O=C(Nc1ccc(OC(F)(F)F)cc1)c1cc(F)ccc1O` [Compound 45], the 50% inhibitory concentration (IC50) is under 1 µM in assay [1] (HL-60, second Table 4); under 1 µM in assay [2] (second Table 4); 1 to 10 µM in assay [3] (NALM-6, second Table 4).

As to `CC(=O)Oc1ccc(F)cc1C(=O)Nc1ccc(Br)c(Cl)c1` [Compound 27], the 50% inhibitory concentration (IC50) was under 1 µM in assay [1] (HL-60, second Table 4) and under 1 µM in assay [2] (second Table 4).

As for `O=C(Nc1ccc([N+](=O)[O-])cc1Cl)c1cc(Cl)ccc1O` [Compound 23], the IC50 is under 1 µM in assay [1] (HL-60, second Table 4); under 1 µM in assay [2] (second Table 4); under 1 µM in assay [3] (NALM-6, second Table 4).

For the compound `O=C(Nc1ccc(C(F)(F)F)cc1)c1cc(F)ccc1O` [Compound 44], the IC50 was under 1 µM in assay [1] (HL-60, second Table 4); under 1 µM in assay [2] (second Table 4); under 1 µM in assay [3] (NALM-6, second Table 4).

Regarding `O=C(Nc1ccc([N+](=O)[O-])cc1Cl)c1ccc2cccnc2c1O` [Compound 82], the IC50 is 0.1 to 1 µM in assay [1] (HL-60, Table 5); 0.1 to 1 µM in assay [2] (Table 5); under 0.1 µM in assay [3] (NALM-6, Table 5).

`N#Cc1ccc(NC(=O)c2cc(Cl)c(F)cc2O)cc1` [Compound 161]: the IC50 is under 1 µM in assay [1] (HL-60, second Table 4); under 1 µM in assay [2] (second Table 4); over 10 µM in assay [3] (NALM-6, second Table 4).

On to `N#Cc1ccc(NC(=O)c2ccc(C(F)(F)F)cc2O)cc1` [Compound 17], for which the IC50 was under 1 µM in assay [1] (HL-60, second Table 4); under 1 µM in assay [2] (second Table 4); under 1 µM in assay [3] (NALM-6, second Table 4).

For `N#Cc1ccc(NC(=O)c2cc(Br)c3cccnc3c2O)cc1` [Compound 71], the IC50 in assay [1] (HL-60, Table 5) was 0.1 to 1 µM; in assay [2] (Table 5), under 0.1 µM; in assay [3] (NALM-6, Table 5) it was under 0.1 µM.

As to `N#Cc1ccc(NC(=O)c2ccc(-c3ccccc3)cc2O)cc1` [Compound 101], the IC50 in assay [1] (HL-60, second Table 4) was under 1 µM; in assay [2] (second Table 4), under 1 µM; in assay [3] (NALM-6, second Table 4), under 1 µM.

Consider `O=C(Nc1cc(F)cc(F)c1)c1ccc2cccnc2c1O` [Compound 69], for which the IC50 lay within 0.1 to 1 µM in assay [1] (HL-60, Table 5); 0.1 to 1 µM in assay [2] (Table 5); 0.1 to 1 µM in assay [3] (NALM-6, Table 5).

On to `O=C(Nc1ccc(C(F)(F)F)cc1)c1ccc2cccnc2c1O` [Compound 66], for which the concentration for half-maximal inhibition (IC50) in assay [1] (HL-60, Table 5) was 0.1 to 1 µM; in assay [2] (Table 5), 0.1 to 1 µM; in assay [3] (NALM-6, Table 5), 0.1 to 1 µM.

As for `Cc1ccc(C(F)(F)F)cc1NC(=O)c1cc(F)ccc1O` [Compound 63], the IC50 is under 1 µM in assay [1] (HL-60, second Table 4); under 1 µM in assay [2] (second Table 4); 1 to 10 µM in assay [3] (NALM-6, second Table 4).

Consider `N#Cc1ccc(NC(=O)c2ccc(F)cc2O)cc1` [Compound 10], for which, in assay [1] (HL-60, second Table 4), the half-maximal inhibitory concentration (IC50) is under 1 µM.

Regarding `Cc1cc(C#N)ccc1NC(=O)c1ccc2cccnc2c1O` [Compound 78], the IC50 is 0.1 to 1 µM in assay [1] (HL-60, Table 5); 0.1 to 1 µM in assay [2] (Table 5); under 0.1 µM in assay [3] (NALM-6, Table 5).

The compound `N#Cc1ccc(NC(=O)c2ccc(Br)cc2O)c(Cl)c1` [Compound 11] had a half-maximal inhibitory concentration (IC50) in assay [1] (HL-60, second Table 4) of under 1 µM.

`N#Cc1ccc(NC(=O)c2ccc(Br)cc2O)cc1` [Compound 9] had an IC50 in assay [1] (HL-60, second Table 4) of under 1 µM.

As to `N#Cc1ccc(NC(=O)c2ccc(Br)cc2O)cc1Cl` [Compound 13], the IC50 in assay [1] (HL-60, second Table 4) is under 1 µM.

The compound `N#Cc1ccc(NC(=O)c2cc(F)ccc2O)cc1Cl` [Compound 5] displayed an IC50 in assay [1] (HL-60, second Table 4) of under 1 µM.

In the case of `O=C(Nc1ccc(Cl)cc1Cl)c1ccc2cccnc2c1O` [Compound 81], the half-maximal inhibitory concentration (IC50) in assay [1] (HL-60, Table 5) fell in the range of 0.1 to 1 µM; in assay [2] (Table 5), 0.1 to 1 µM; in assay [3] (NALM-6, Table 5) it was 0.1 to 1 µM.

Compound `N#Cc1ccc(NC(=O)c2ccc(Cl)cc2O)cc1` [Compound 16] had an IC50 in assay [1] (HL-60, second Table 4) of under 1 µM.

For the compound `N#Cc1ccc(NC(=O)c2cc(Br)ccc2O)cc1Cl` [Compound 7], the IC50 in assay [1] (HL-60, second Table 4) was under 1 µM.

In assay [1] (HL-60, second Table 4), `Cc1cc(NC(=O)c2cc(F)ccc2O)ccc1Cl` [Compound 34] yielded a concentration for half-maximal inhibition (IC50) of under 1 µM.

Take `O=C(Nc1cc(C(F)(F)F)cc(C(F)(F)F)c1)c1ccc2cccnc2c1O` [Compound 70]: the 50% inhibitory concentration (IC50) lay within 1 to 10 µM in assay [1] (HL-60, Table 5); 0.1 to 1 µM in assay [2] (Table 5); 1 to 10 µM in assay [3] (NALM-6, Table 5).

`Cc1cc(NC(=O)c2cc(Cl)ccc2O)ccc1[N+](=O)[O-]` [Compound 25] registered an IC50 in assay [1] (HL-60, second Table 4) of under 1 µM.

For `O=C(Nc1cccc(OC(F)(F)F)c1)c1cc(F)ccc1O` [Compound 52], the IC50 in assay [1] (HL-60, second Table 4) is under 1 µM; in assay [2] (second Table 4), under 1 µM; in assay [3] (NALM-6, second Table 4) it was 1 to 10 µM.

For `N#Cc1ccc(NC(=O)c2ccccc2O)cc1` [Compound 1], the IC50 in assay [1] (HL-60, second Table 4) lay in the range of 1 to 10 µM.

`N#Cc1ccc(NC(=O)c2ccc(Br)cc2O)c(F)c1` [Compound 12] gave a half-maximal inhibitory concentration (IC50) in assay [1] (HL-60, second Table 4) of under 1 µM.

Take `O=C(Nc1ccc(Br)c(Cl)c1)c1ccc2cccnc2c1O` [Compound 68]: the half-inhibitory concentration (IC50) in assay [1] (HL-60, Table 5) fell in the range of 0.1 to 1 µM; in assay [2] (Table 5), 0.1 to 1 µM; in assay [3] (NALM-6, Table 5) it was 0.1 to 1 µM.

In the case of `O=C(Nc1ccc(OC(F)(F)F)c(Cl)c1)c1cc(F)ccc1O` [Compound 46], the 50% inhibitory concentration (IC50) is under 1 µM in assay [1] (HL-60, second Table 4); under 1 µM in assay [2] (second Table 4); under 1 µM in assay [3] (NALM-6, second Table 4).

Take `O=C(Nc1ccc([N+](=O)[O-])cc1)c1cc(F)ccc1O` [Compound 160]: in assay [1] (HL-60, second Table 4), the IC50 is under 1 µM.

For `N#Cc1ccc(NC(=O)c2cc(-c3ccccc3)ccc2O)cc1` [Compound 15], the half-inhibitory concentration (IC50) in assay [1] (HL-60, second Table 4) was 1 to 10 µM; in assay [2] (second Table 4), under 1 µM; in assay [3] (NALM-6, second Table 4) it was 1 to 10 µM.

Usually IC50 stands for the midpoint of a concentration-inhibition curve.
